Laboratory results from ChEMBL document CHEMBL1150788, “In vitro susceptibility of Sporothrix schenckii to six antifungal agents determined using three different methods” (2007).

Assays:
Assay type in all cases: functional
Sporothrix schenckii [1] = assay: Antifungal activity against Sporothrix schenckii P24255 isolate from cutaneous-lymphatic sporotrichosis patient after 72 hrs by modified NCCLS M38-A method
Sporothrix schenckii [2] = assay: Antifungal activity against Sporothrix schenckii PGAC0016 isolate from cutaneous-lymphatic sporotrichosis patient after 72 hrs by ATB Fungus 2 method
Sporothrix schenckii [3] = assay: Antifungal activity against Sporothrix schenckii P0019 isolate from cutaneous-lymphatic sporotrichosis patient after 72 hrs by Sensititre YeastOne method
Sporothrix schenckii [4] = assay: Antifungal activity against Sporothrix schenckii P24223 isolate from cutaneous-lymphatic sporotrichosis patient after 72 hrs by Sensititre YeastOne method
Sporothrix schenckii [5] = assay: Antifungal activity against Sporothrix schenckii MRSS4 isolate from cutaneous-lymphatic sporotrichosis patient after 72 hrs by Sensititre YeastOne method
Sporothrix schenckii [6] = assay: Antifungal activity against Sporothrix schenckii SSA29 isolate from cutaneous-lymphatic sporotrichosis patient after 72 hrs by modified NCCLS M38-A method
Sporothrix schenckii [7] = assay: Antifungal activity against Sporothrix schenckii P24255 isolate from cutaneous-lymphatic sporotrichosis patient after 72 hrs by Sensititre YeastOne method
Sporothrix schenckii [8] = assay: Antifungal activity against Sporothrix schenckii P20825 isolate from cutaneous-lymphatic sporotrichosis patient after 72 hrs by ATB Fungus 2 method
Sporothrix schenckii [9] = assay: Antifungal activity against Sporothrix schenckii P24223 isolate from cutaneous-lymphatic sporotrichosis patient after 72 hrs by ATB Fungus 2 method
Sporothrix schenckii [10] = assay: Antifungal activity against Sporothrix schenckii PSSA81 isolate from cutaneous-lymphatic sporotrichosis patient after 72 hrs by modified NCCLS M38-A method
Sporothrix schenckii [11] = assay: Antifungal activity against Sporothrix schenckii P25013 isolate from cutaneous-lymphatic sporotrichosis patient after 72 hrs by modified NCCLS M38-A method
Sporothrix schenckii [12] = assay: Antifungal activity against Sporothrix schenckii P30019 isolate from cutaneous-lymphatic sporotrichosis patient after 72 hrs by ATB Fungus 2 method
Sporothrix schenckii [13] = assay: Antifungal activity against Sporothrix schenckii isolate from cutaneous-lymphatic sporotrichosis patient after 72 hrs by modified NCCLS M38-A method
Sporothrix schenckii [14] = assay: Antifungal activity against Sporothrix schenckii P10012 isolate from cutaneous-lymphatic sporotrichosis patient after 72 hrs by ATB Fungus 2 method
Sporothrix schenckii [15] = assay: Antifungal activity against Sporothrix schenckii P14036 isolate from cutaneous-lymphatic sporotrichosis patient after 72 hrs by ATB Fungus 2 method
Sporothrix schenckii [16] = assay: Antifungal activity against Sporothrix schenckii P30019 isolate from cutaneous-lymphatic sporotrichosis patient after 72 hrs by modified NCCLS M38-A method
Sporothrix schenckii [17] = assay: Antifungal activity against Sporothrix schenckii isolate from cutaneous-lymphatic sporotrichosis patient after 72 hrs by ATB Fungus 2 method
Sporothrix schenckii [18] = assay: Antifungal activity against Sporothrix schenckii PSCC1 isolate from cutaneous-lymphatic sporotrichosis patient after 72 hrs by ATB Fungus 2 method
Sporothrix schenckii [19] = assay: Antifungal activity against Sporothrix schenckii P10012 isolate from cutaneous-lymphatic sporotrichosis patient after 72 hrs by modified NCCLS M38-A method
Sporothrix schenckii [20] = assay: Antifungal activity against Sporothrix schenckii isolate from cutaneous-lymphatic sporotrichosis patient after 72 hrs by Sensititre YeastOne method
Sporothrix schenckii [21] = assay: Antifungal activity against Sporothrix schenckii SSA29 isolate from cutaneous-lymphatic sporotrichosis patient after 72 hrs by Sensititre YeastOne method
Sporothrix schenckii [22] = assay: Antifungal activity against Sporothrix schenckii P30915 isolate from cutaneous-lymphatic sporotrichosis patient after 72 hrs by Sensititre YeastOne method
Pichia kudriavzevii [23] = assay: Antifungal activity against Candida krusei ATCC 6258 […] after 72 hrs by ATB Fungus 2 method; conditions: ATCC 6258, 72 h
Sporothrix schenckii [24] = assay: Antifungal activity against Sporothrix schenckii SSA29 isolate from cutaneous-lymphatic sporotrichosis patient after 72 hrs by ATB Fungus 2 method
Sporothrix schenckii [25] = assay: Antifungal activity against Sporothrix schenckii PSCC1 isolate from cutaneous-lymphatic sporotrichosis patient after 72 hrs by modified NCCLS M38-A method
Sporothrix schenckii [26] = assay: Antifungal activity against Sporothrix schenckii P26187 isolate from cutaneous-lymphatic sporotrichosis patient after 72 hrs by modified NCCLS M38-A method
Sporothrix schenckii [27] = assay: Antifungal activity against Sporothrix schenckii PJRC002 isolate from cutaneous-lymphatic sporotrichosis patient after 72 hrs by modified NCCLS M38-A method
Sporothrix schenckii [28] = assay: Antifungal activity against Sporothrix schenckii P20825 isolate from cutaneous-lymphatic sporotrichosis patient after 72 hrs by Sensititre YeastOne method
Sporothrix schenckii [29] = assay: Antifungal activity against Sporothrix schenckii MRSS4 isolate from cutaneous-lymphatic sporotrichosis patient after 72 hrs by ATB Fungus 2 method
Sporothrix schenckii [30] = assay: Antifungal activity against Sporothrix schenckii P14036 isolate from cutaneous-lymphatic sporotrichosis patient after 72 hrs by modified NCCLS M38-A method
Sporothrix schenckii [31] = assay: Antifungal activity against Sporothrix schenckii P14954 isolate from cutaneous-lymphatic sporotrichosis patient after 72 hrs by ATB Fungus 2 method
Sporothrix schenckii [32] = assay: Antifungal activity against Sporothrix schenckii P24223 isolate from cutaneous-lymphatic sporotrichosis patient after 72 hrs by modified NCCLS M38-A method
Pichia kudriavzevii [33] = assay: Antifungal activity against Candida krusei ATCC 6258 […] after 72 hrs by Sensititre YeastOne method; conditions: ATCC 6258, 72 h
Sporothrix schenckii [34] = assay: Antifungal activity against Sporothrix schenckii P25013 isolate from cutaneous-lymphatic sporotrichosis patient after 72 hrs by ATB Fungus 2 method
Sporothrix schenckii [35] = assay: Antifungal activity against Sporothrix schenckii PSCC1 isolate from cutaneous-lymphatic sporotrichosis patient after 72 hrs by Sensititre YeastOne method
Sporothrix schenckii [36] = assay: Antifungal activity against Sporothrix schenckii PGAC0016 isolate from cutaneous-lymphatic sporotrichosis patient after 72 hrs by Sensititre YeastOne method
Sporothrix schenckii [37] = assay: Antifungal activity against Sporothrix schenckii P1621 isolate from cutaneous-lymphatic sporotrichosis patient after 72 hrs by modified NCCLS M38-A method
Sporothrix schenckii [38] = assay: Antifungal activity against Sporothrix schenckii P14954 isolate from cutaneous-lymphatic sporotrichosis patient after 72 hrs by modified NCCLS M38-A method
Sporothrix schenckii [39] = assay: Antifungal activity against Sporothrix schenckii P30019 isolate from cutaneous-lymphatic sporotrichosis patient after 72 hrs by Sensititre YeastOne method
Sporothrix schenckii [40] = assay: Antifungal activity against Sporothrix schenckii P30915 isolate from cutaneous-lymphatic sporotrichosis patient after 72 hrs by modified NCCLS M38-A method
Sporothrix schenckii [41] = assay: Antifungal activity against Sporothrix schenckii P26187 isolate from cutaneous-lymphatic sporotrichosis patient after 72 hrs by Sensititre YeastOne method
Sporothrix schenckii [42] = assay: Antifungal activity against Sporothrix schenckii PJRC002 isolate from cutaneous-lymphatic sporotrichosis patient after 72 hrs by Sensititre YeastOne method
Sporothrix schenckii [43] = assay: Antifungal activity against Sporothrix schenckii PGAC0016 isolate from cutaneous-lymphatic sporotrichosis patient after 72 hrs by modified NCCLS M38-A method
Sporothrix schenckii [44] = assay: Antifungal activity against Sporothrix schenckii PSSA81 isolate from cutaneous-lymphatic sporotrichosis patient after 72 hrs by ATB Fungus 2 method
Candida parapsilosis = assay: Antifungal activity against Candida parapsilosis ATCC 22019 […] after 72 hrs by ATB Fungus 2 method; conditions: Lodderomyces parapsilosis, ATCC 22019, 72 h

C[C@@H]1[C@H](O)[C@@H](C)/C=C/C=C/C=C/C=C/C=C/C=C/C=C/[C@H](O[C@@H]2O[C@H](C)[C@@H](O)[C@H](N)[C@@H]2O)C[C@@H]2O[C@](O)(C[C@@H](O)C[C@@H](O)[C@H](O)CC[C@@H](O)C[C@@H](O)CC(=O)O[C@H]1C)C[C@H](O)[C@H]2C(=O)O [AMPHOTERICIN B]
0.5 µg/mL: MIC (Sporothrix schenckii [4]) | MIC (Sporothrix schenckii [5]) | MIC (Sporothrix schenckii [7]) | MIC50 (Sporothrix schenckii [20]) | MIC (Sporothrix schenckii [22]) | MIC (Sporothrix schenckii [32]) | MIC (Pichia kudriavzevii [33]) | MIC (Sporothrix schenckii [41])
0.06 µg/mL: MIC (Sporothrix schenckii [19]) | MIC (Sporothrix schenckii [21])
> 16 µg/mL: MIC (Sporothrix schenckii [6]) | MIC (Sporothrix schenckii [11]) | MIC (Sporothrix schenckii [26]) | MIC (Sporothrix schenckii [30])
1 µg/mL: MIC (Sporothrix schenckii [8]) | MIC (Sporothrix schenckii [10]) | MIC (Sporothrix schenckii [12]) | MIC50 (Sporothrix schenckii [13]) | MIC (Sporothrix schenckii [15]) | MIC (Sporothrix schenckii [16]) | MIC50 (Sporothrix schenckii [17]) | MIC90 (Sporothrix schenckii [20]) | MIC (Sporothrix schenckii [28]) | MIC (Sporothrix schenckii [34]) | MIC (Sporothrix schenckii [39]) | MIC (Sporothrix schenckii [42])
≤ 0.5 µg/mL: MIC (Sporothrix schenckii [2]) | MIC (Sporothrix schenckii [9]) | MIC (Sporothrix schenckii [14]) | MIC (Sporothrix schenckii [18]) | MIC (Pichia kudriavzevii [23]) | MIC (Sporothrix schenckii [31]) | MIC (Candida parapsilosis)
0.125 µg/mL: MIC (Sporothrix schenckii [36]) | MIC (Sporothrix schenckii [37])
> 116 µg/mL: MIC90 (Sporothrix schenckii [13])
4 µg/mL: MIC90 (Sporothrix schenckii [17]) | MIC (Sporothrix schenckii [27]) | MIC (Sporothrix schenckii [29]) | MIC (Sporothrix schenckii [44])
0.25 µg/mL: MIC (Sporothrix schenckii [3]) | MIC (Sporothrix schenckii [25]) | MIC (Sporothrix schenckii [35]) | MIC (Sporothrix schenckii [38]) | MIC (Sporothrix schenckii [40]) | MIC (Sporothrix schenckii [43])
2 µg/mL: MIC (Sporothrix schenckii [1]) | MIC (Sporothrix schenckii [24])
